Data reported in US9061060B2, “Deuterated benzylbenzene derivatives and methods of use” (Theracos Inc., priority 2008, dated 2015).

Experiments:
human SGLT1 = target: T1, human SGLT1 (Homo sapiens, UniProt P13866); details: read-out: SGLT1 IC50; COS-7 cells expressing human SGLT1; 25% human serum; 2 hours
T1 sequence (P13866 1-664): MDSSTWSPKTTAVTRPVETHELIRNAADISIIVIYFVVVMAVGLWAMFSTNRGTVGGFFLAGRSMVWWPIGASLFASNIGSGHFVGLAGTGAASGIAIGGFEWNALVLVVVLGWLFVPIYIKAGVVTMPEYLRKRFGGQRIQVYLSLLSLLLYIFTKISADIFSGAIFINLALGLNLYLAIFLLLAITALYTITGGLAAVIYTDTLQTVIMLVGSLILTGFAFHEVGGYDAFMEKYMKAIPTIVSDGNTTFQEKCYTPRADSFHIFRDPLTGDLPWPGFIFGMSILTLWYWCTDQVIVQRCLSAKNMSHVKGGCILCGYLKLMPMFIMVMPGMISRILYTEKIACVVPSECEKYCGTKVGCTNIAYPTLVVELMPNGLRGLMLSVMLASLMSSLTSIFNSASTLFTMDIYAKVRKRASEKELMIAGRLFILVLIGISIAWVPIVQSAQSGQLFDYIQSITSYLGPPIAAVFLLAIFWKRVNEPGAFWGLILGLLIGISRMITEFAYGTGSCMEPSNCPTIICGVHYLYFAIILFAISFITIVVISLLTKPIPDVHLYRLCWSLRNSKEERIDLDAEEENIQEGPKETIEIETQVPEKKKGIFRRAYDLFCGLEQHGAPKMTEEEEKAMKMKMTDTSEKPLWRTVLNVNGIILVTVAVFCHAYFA
Method: Full-length human SGLT1 cDNA in the pDream2.1 expression vector was obtained from GenScript Corporation and propagated in Escherichia coli strain DH5α using Luria-Bertani (LB) medium containing ampicillin. Plasmid DNA was isolated using the QIAGEN Plasmid Midi Kit (QIAGEN Inc.). […] Transfected cells were stored in DMEM containing 10% dimethyl sulfoxide (DMSO) at −80° C.
Cells expressing SGLT1 or SGLT2 were seeded on 96-well ScintiPlate scintillating plates (PerkinElmer, Inc.) in DMEM containing 10% FBS (1×10^5 cells per well in 1001 medium) incubated at 37° C. under 5% CO2 for 48 hours prior to the assay. […] Cells were washed twice with 150 μl of wash buffer (137 mM N-methylglucamine, 10 mM Tris/Hepes, pH 7.2) and methyl-α-D-[U-^14C]glucopyranoside uptake was quantified using a TopCount scintillation counter (PerkinElmer, Inc.). Sodium-dependent glucopyranoside uptake was measured by subtracting the values obtained with sodium-free buffer from those obtained using sodium buffer (average of triplicate determinations). The IC50 for SGLT2 and SGLT1 were determined, and the selectivity for SGLT2 inhibition was calculated by dividing the SGLT1 IC50 by the SGLT2 IC50.

[1] = Pharmacokinetic parameters in SD rats; assay type: in vivo, Sprague-Dawley rats; details: single oral 3 mg/kg in 30% PEG400, plasma
Method: The pharmacokinetic study of each test compound was conducted in 4 Sprague-Dawley rats following a single oral administration of 3 mg/kg of the compound. The dose was prepared by dissolving test article in appropriate volume of 30% PEG400. The plasma samples were collected from the orbital plexus at 0.083, 0.25, 0.50, 1.0, 2.0, 4.0, 6.0, 8.0, 12 and 24 hours post dose, and the plasma concentrations were determined by a developed LC-MS/MS method.

human SGLT2 = target: T2, human SGLT2 (Homo sapiens, UniProt P31639); assay: Methyl-α-D-[U-14C]glucopyranoside uptake assay, cells stably expressing human SGLT2; assay type: cell-based; details: for IC50: HEK293.ETN cells expressing human SGLT2, 25% human serum, 1.5 hours; for Selectivity: SGLT1 IC50 divided by SGLT2 IC50
T2 construct: A full-length cDNA clone expressing human SGLT2 (GenScript Corporation)
T2 sequence (P31639 1-672): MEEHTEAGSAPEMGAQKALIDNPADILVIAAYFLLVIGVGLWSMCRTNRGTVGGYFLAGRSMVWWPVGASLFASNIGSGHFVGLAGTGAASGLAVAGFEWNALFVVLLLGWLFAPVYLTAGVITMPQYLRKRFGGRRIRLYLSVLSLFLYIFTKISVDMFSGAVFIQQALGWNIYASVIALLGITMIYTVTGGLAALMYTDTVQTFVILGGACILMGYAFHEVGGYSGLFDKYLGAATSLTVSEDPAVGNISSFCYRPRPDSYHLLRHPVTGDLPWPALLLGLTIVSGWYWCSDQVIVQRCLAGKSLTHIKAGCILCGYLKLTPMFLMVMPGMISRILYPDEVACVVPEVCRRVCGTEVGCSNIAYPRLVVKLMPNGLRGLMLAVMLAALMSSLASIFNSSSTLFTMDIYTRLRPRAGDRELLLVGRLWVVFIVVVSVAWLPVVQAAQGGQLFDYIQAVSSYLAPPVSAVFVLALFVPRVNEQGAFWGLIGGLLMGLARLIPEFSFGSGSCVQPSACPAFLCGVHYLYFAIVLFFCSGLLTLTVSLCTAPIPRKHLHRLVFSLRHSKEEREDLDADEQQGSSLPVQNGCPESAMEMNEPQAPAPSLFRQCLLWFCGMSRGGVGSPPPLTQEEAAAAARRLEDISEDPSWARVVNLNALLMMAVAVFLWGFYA
From the text: A full-length cDNA clone expressing human SGLT2 (GenScript Corporation) was subcloned into Hind III and Not I sites of the pEAK15 expression vector. Clones harboring the cDNA inserts were identified by restriction analysis.
A plasmid containing human SGLT2 was linearized with Nsi I and purified by agarose gel electrophoresis. Using Lipofectamine 2000 Transfection Reagent (Invitrogen Corporation), DNA was transfected into HEK293.ETN cells and cultured in Dulbecco's Modified Eagle Medium (DMEM) containing 10% fetal bovine serum (FBS) at 37° C. under 5% CO2 for 24 hours. Transfectants were selected in the same growth medium supplemented with puromycin (Invitrogen Corporation) for two weeks. Puromycin-resistant cells were recovered and seeded on a fresh 96-well plate (single cell per well) and cultured in the presence of puromycin until cells became confluent.
Cells expressing SGLT1 or SGLT2 were seeded on 96-well ScintiPlate scintillating plates (PerkinElmer, Inc.) in DMEM containing 10% FBS (1×10^5 cells per well in […] medium) incubated at 37° C. under 5% CO2 for 48 hours prior to the assay.

beagle dogs = assay: Urinary glucose excretion in beagle dogs; assay type: in vivo; details: separate experiment (Table 4A)
Method: Each test compound was dissolved in 10% PEG400 and administered orally to overnight-fasted beagle dogs by gavage at the dose level of 0.03 mg/kg. Control dogs were given 10% PEG400 only. One hour post dosing, glucose solution (2 g/kg, 5 mL/kg) was administered by oral gavage. Urine was collected within metabolic cages from 0 to 8 hours, and 8 to 24 hours post-dosing for urine volume and glucose measurement. Food was removed 16 hours before dosing and then provided 3 hours after dosing. Water was supplied ad libitum. The concentration of urinary glucose was determined at 8 hours and 24 hours post-dose using a biochemistry analyzer.

CYP2C19 = target: T3, CYP2C19 (Homo sapiens, UniProt P33261); assay: P450-Glo CYP screening kit, CYP2C19 inhibition; assay type: in vitro ADME; details: luminescence, read-out: IC50 2C19
T3 construct: purchased Promega
T3 sequence (P33261 whole entry): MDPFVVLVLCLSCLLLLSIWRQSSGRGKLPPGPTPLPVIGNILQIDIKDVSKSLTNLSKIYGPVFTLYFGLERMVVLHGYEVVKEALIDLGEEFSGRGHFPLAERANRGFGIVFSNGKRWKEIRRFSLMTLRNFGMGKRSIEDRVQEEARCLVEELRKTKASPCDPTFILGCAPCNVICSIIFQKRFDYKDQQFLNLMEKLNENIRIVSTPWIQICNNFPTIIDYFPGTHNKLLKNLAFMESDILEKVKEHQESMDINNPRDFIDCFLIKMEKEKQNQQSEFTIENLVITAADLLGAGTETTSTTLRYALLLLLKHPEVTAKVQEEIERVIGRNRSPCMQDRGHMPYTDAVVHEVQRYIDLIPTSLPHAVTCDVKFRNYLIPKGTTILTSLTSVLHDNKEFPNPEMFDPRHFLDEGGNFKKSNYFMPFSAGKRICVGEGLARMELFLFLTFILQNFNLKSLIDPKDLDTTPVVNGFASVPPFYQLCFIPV
From the text: P450-Glo™ CYP Screening Kits for CYP1A2, CYP3A4 and CYP2C19 were purchased from Promega. […] Luminescence was quantified using a Victor 3 spectrophotometer (PerkinElmer).

Structure (SMILES) | IC50 (human SGLT1) [nM] | CL/F ([1]; Sprague-Dawley, rat) [mL/min/kg] | AUC(0-t) ([1]; Sprague-Dawley, rat, read-out: AUC0-t (mean ± SD)) [ng·h/mL] | Cmax (mean ± SD) [1] [ng/mL] | t1/2 (mean ± SD) [1] [h] | tmax (mean ± SD) [1] [h] | IC50 (human SGLT2) [nM] | Selectivity (human SGLT2) | Urinary Glucose Excretion in Dogs, 0-8 h (mean ± SD) (beagle dogs; 0-8 h) [mg] | Urinary Glucose Excretion in Dogs, 0-24 h (mean ± SD) (beagle dogs) [mg] | Urinary Glucose Excretion in Dogs, 8-24 h (mean ± SD) (beagle dogs) [mg] | IC50 (CYP2C19) [nM]
COc1ccc(Cc2cc([C@@H]3O[C@H](CO)[C@@H](O)[C@H](O)[C@H]3O)ccc2Cl)cc1 [Ref B, (2S,3R,4R,5S,6R)-2-(4-chloro-3-(4-methoxybenzyl)phenyl)-6-(hydroxymethyl)tetrahydro-2H-pyran-3,4,5-triol, reference compound] | 540 | 9.47 | 5240 ± 715 | 1638 ± 326 | 3.55 ± 1.80 | 0.56 ± 0.31 | 1.9 | 284 | 3322 ± 464 | 16726 ± 1507 | 13404 ± 1888 | 195000
[2H]C([2H])([2H])Oc1ccc(C([2H])([2H])c2cc([C@@H]3O[C@H](CO)[C@@H](O)[C@H](O)[C@H]3O)ccc2Cl)cc1 [compound 19, (2S,3R,4R,5S,6R)-2-(4-chloro-3-((4-(methoxy-d3)phenyl)methyl-d2)phenyl)-6-(hydroxymethyl)tetrahydro-2H-pyran-3,4,5-triol] | 820 | – | – | – | – | – | 0.8 | 1025 | – | 15928 ± 321 | 12516 ± 485 | 355000
